Test results published in patent US4533667A, “Imidazolidinedione derivatives” (Pfizer Inc., priority 1984, dated 1985).

Experiments:
aldose reductase = biological target: T1, aldose reductase (Bos taurus, UniProt P16116); test: inhibition of aldose reductase enzyme activity (partially purified enzyme from calf lens); format: biochemical; conditions: for inhibition at 1 µM: 10^-6 M, partially purified aldose reductase from calf lens; for aldose reductase inhibitory activity (in words): qualitative statement, no concentration given
T1 construct: partially purified aldose reductase enzyme obtained from calf lens; from tissue; host or cells: calf lens
Description: (§1) The activity of the compounds of the present invention, as agents for the control of chronic diabetic complications, is determined by their ability to successfully pass one or more of the following standard biological or pharmacological tests, viz., (1) measuring their ability to inhibit the enzyme activity of isolated aldose reductase; (2) measuring their ability to reduce or inhibit sorbitol accumulation in the sciatic nerve of acutely streptozotocinized (i.e., diabetic) rats; (3) measuring their ability to reverse already-elevated sorbitol levels in the sciatic nerve and lens of chronic streptozotocin-induced diabetic rats; (4) measuring their ability to prevent or inhibit galactitol formation in the lens of acutely galactosemic rats, and (5) measuring their ability to delay cataract formation and reduce the severity of lens opacities in chronic galactosemic rats.
The following spiro-oxindole imidazolidinedione final products of Examples 1-5, respectively, were tested at a concentration level of 10^-6 M for their ability to reduce or inhibit aldose reductase enzyme activity via the procedure of S. Hayman et al., as described in the Journal of Biological Chemistry, Vol. 240, p. 877 (1965) and as modified by K. Sestanj et al. in U.S. Pat. No. 3,821,383. In every case, the substrate employed was partially purified aldose reductase enzyme obtained from calf lens.

[1] = tested on: sorbitol levels in diabetic rats; test: inhibition of the formation of sorbitol levels in diabetic rats, oral; format: in vivo, rat; conditions: dose levels ranging from 0.5 mg/kg to 20 mg/kg
Description: As previously indicated, the spiro-oxindole imidazolidinedione compounds of this invention are readily adapted to therapeutic use as aldose reductase inhibitors for the control of chronic diabetic complications, in view of their ability to reduce lens sorbitol levels in diabetic subjects to a statistically significant degree. […] Furthermore, the herein described compounds of this invention can be administered by either the oral or parenteral routes of administration. […]
as §1

Row | SMILES | inhibition at 1 µM (aldose reductase) | aldose reductase inhibitory activity (in words) (aldose reductase) | inhibition of the formation of sorbitol levels in diabetic rats (in words) [1]
1 | Nc1cc(Cl)cc2c1NC(=O)C21NC(=O)NC1=O (centres unmarked) [Example 1, 5'-chloro-7'-amino-spiro-[imidazolidine-4,3'-indolidine]-2,2',5-trione] | 72% | highly potent | 
2 | O=C1NC(=O)C2(N1)C(=O)N(Cc1cccnc1)c1ccc(F)cc12 (centres unmarked) [Example 3, 1'-(3-pyridylmethyl)-5'-fluorospiro-[imidazolidine-4,3'-indoline]-2,2',5-trione] | 71% | highly potent | 
3 | O=C1NC(=O)C2(N1)C(=O)N(Cc1cccnc1)c1c(Cl)cc(Cl)cc12 (centres unmarked) [Example 2, 1'-(3-pyridymethyl)-5',7'-dichloro-spiro-[imidazolidine-4,3'-indoline]-2,2',5-trione] | 81% | highly potent | significantly high degree
4 | O=C1NC(=O)C2(N1)C(=O)Nc1cnccc12 (centres unmarked) [Example 5, spiro-[imidazolidine-4,3'-(6-azaindoline)]-2,2',5-trione] | 49% | highly potent | 
5 | Nc1ccc2c(c1)NC(=O)C21NC(=O)NC1=O (centres unmarked) [Example 4, 6'-amino-spiro-[imidazolidine-4,3'-indoline]-2,2',5-trione] | 27% | highly potent | 
